# Measurements: patent US11766430B2, “Methods of using a phenoxypropylamine compound to treat pain” (Minerva Neurosciences, Inc., priority 2018, dated 2023)
# “And” between values parts separate entries of the source, which are not always exact repeats. Equal values may be shown once.
# Test system: peripheral mononeuropathy (Bennett model) in rats
# Assay: Peripheral mononeuropathy (Bennett model, chronic constriction injury), paw pressure test (Example 3)
# Type: in vivo, male Sprague-Dawley rats
# Conditions: for paw withdrawal threshold, control paw, Mean: n = 10; for Nociceptive threshold, control paw (mean ± s.e.m.): T0 (14 days after surgery, before dosing)
# Protocol: The model of Chronic Constriction Injury (CCI) is based on a discrete peripheral nerve injury and can be related to post-traumatic/postsurgical neuropathic pain experienced by patients (Bennett, G. J. and Xie, Y. K., A peripheral mononeuropathy in rat that produces disorders of pain sensation like those seen in man, Pain, 1988(33):87-107). Unilateral peripheral mononeuropathy was induced by loose ligation of the rat the sciatic nerve of the right hindpaw in anaesthetized rats (xylazine 10 mg/kg i.p., ketamine 60 mg/kg i.p.). The common sciatic nerve was exposed at the level of the middle of the thigh by blunt dissection through the biceps femoris. Proximal to the sciatic trifurcation, four ligatures were tied loosely around it with about 1 mm spacing. Great care was taken to tie the ligatures, such that the diameter of the nerve was seen to be just barely constricted.
# Fourteen days later, static mechanical hyperalgesia is assessed using the Paw pressure test (Randall, L. O. and Selitto, J. J., A method for measurement of analgesic activity on inflamed tissue, Arch Int Pharmacodyn, 1957(111):409-419). This test requires the application of an increasing pressure on the hind paws between a flat surface and a blunt pointer. This test is usually used with animals with one hindpaw inflamed by an injection or injured by ligation, and one normal hindpaw, to evaluate drugs for analgesic action. The apparatus exerts a steadily increasing force and reaction threshold is determined as the pressure (g) required to elicit paw withdrawal and/or vocalization. Ugo Basile Analgesimeter (Ugo Basile, Italy) was used for the paw pressure test.
# Fourteen days after surgery (D0), nociceptive reaction thresholds (vocalization or paw withdrawal) was measured in order to select animals meeting the inclusion criteria: 20 g<paw withdrawal threshold<240 g (baseline).
# Fifty (50) male Sprague-Dawley rats (SPF status, Janvier, France), weighing 133-181 grams the day of surgery were used. Rats were housed in a temperature (20-24° C.) and relative humidity (45%-65%) controlled room and acclimated to an artificial day/night cycle of 12 hours light (6:30 a.m. to 6:30 p.m.)/12 hours darkness. Rats had free access to sterilized tap water and were fed ad libitum with pelleted complete diet (reference A04, S.A.F.E.). Animals were housed 4 per cage (cages Type E) and were acclimated for a period of at least 5 days before any testing. Each rat was identified by tail markings. Based on the SPF status of the animal facilities, there is no reason to expect that contaminants were present in the food, water or bedding, at levels capable of interfering with the results of the tests. […]
# Vehicle and MIN-117 were intraperitoneally administered at 10 mL/kg. […] Dosing and testing were performed in a random order by a blinded experimenter except for the morphine-treated group.
# Thirty minutes after morphine injection, the antihyperalgesic effect of morphine was evaluated using the paw pressure test. For vehicle and MIN-117 administration, the antihyperalgesic effect of the was evaluated after 120 min. using the paw pressure test.
# Results were expressed as: • The paw withdrawal threshold (mean±s.e.m.) in grams of contact pressure for each group, calculated from individual paw withdrawal thresholds • The percentage of variation of the paw withdrawal threshold calculated from the mean value of the vehicle-treated group • The percentage of activity of the compound on mechanical hyperalgesia induced by the sciatic nerve ligation, calculated as follows: […]
# [1] = CCI rats, MIN-117 1 mg/kg IP group, Baseline (pre-treatment)
# [2] = CCI rats, MIN-117 1 mg/kg IP, 120 min
# [3] = CCI rats, MIN-117 1 mg/kg IP, 120 min after treatment, hydrochloride, 1 mg/kg
# [4] = CCI rats, MIN-117 3 mg/kg IP group, Baseline (pre-treatment)
# [5] = CCI rats, MIN-117 3 mg/kg IP, 120 min
# [6] = CCI rats, MIN-117 3 mg/kg IP, 120 min after treatment, hydrochloride, 3 mg/kg
# [7] = CCI rats, MIN-117 10 mg/kg IP group, Baseline (pre-treatment)
# [8] = CCI rats, MIN-117 10 mg/kg IP, 120 min
# [9] = CCI rats, MIN-117 10 mg/kg IP, 120 min after treatment, hydrochloride, 10 mg/kg
# [10] = CCI, 1 mg/kg IP, T0 (before dosing)
# [11] = CCI, 3 mg/kg IP, T0 (before dosing)
# [12] = CCI, 10 mg/kg IP, T0 (before dosing)
# [13] = CCI rats, Morphine 3 mg/kg IP [sic], 30 min
# [14] = CCI rats, Morphine 3 mg/kg IP [sic], 30 min after treatment
# [15] = CCI rats, Morphine 3 mg/kg group, Baseline (pre-treatment)
# [16] = CCI, 3 mg/kg SC, T0 (before dosing)
smiles,measurement,setting,value
"Cc1nnc(-c2cc3c(OC[C@@H](O)CN4CCC(c5ccc(Cl)c(Cl)c5)CC4)cccc3o2)o1.Cl [MIN-117, (2S)-1-(4-(3,4-dichlorophenyl)piperidin-1-yl)-3-((2-(5-methyl-1,3,4-oxadiazol-2-yl)benzofuran-4-yl)oxy)propan-2-ol hydrochloride]","% variation vs control paw, injured paw",[1],−54%
same,"% variation vs vehicle treated group, injured paw",[1],−6%
same,"paw withdrawal threshold, control paw, Mean",[1],366 g
same,"% activity on mechanical hyperalgesia, injured paw",[2],9%
same,"% variation vs control paw, injured paw",[2],−47%
same,"% variation vs pre-drug threshold, injured paw",[2],10%
same,"% variation vs vehicle treated group, injured paw",[2],11%
same,"paw withdrawal threshold, control paw, individual rats",[3],400 g (2×) and 300 g (2×) and 360 g and 320 g (4×) and 440 g
same,"paw withdrawal threshold, injured paw, individual rats",[3],200 g (3×) and 180 g (3×) and 160 g (3×) and 220 g
same,"paw withdrawal threshold, control paw, Mean","CCI rats, MIN-117 1 mg/kg IP, 120 min after treatment",348 g
same,"% variation vs control paw, injured paw",[4],−55%
same,"% variation vs vehicle treated group, injured paw",[4],−8%
same,"paw withdrawal threshold, control paw, Mean",[4],364 g
same,"% activity on mechanical hyperalgesia, injured paw",[5],29%
same,"% variation vs control paw, injured paw",[5],−40%
same,"% variation vs pre-drug threshold, injured paw",[5],35%
same,"% variation vs vehicle treated group, injured paw",[5],34%
same,"paw withdrawal threshold, control paw, individual rats",[6],440 g and 420 g (2×) and 300 g and 360 g (2×) and 340 g (2×) and 460 g and 280 g
same,"paw withdrawal threshold, injured paw, individual rats",[6],280 g and 220 g (2×) and 200 g (3×) and 180 g and 240 g (3×)
same,"paw withdrawal threshold, control paw, Mean","CCI rats, MIN-117 3 mg/kg IP, 120 min after treatment",372 g
same,"% variation vs control paw, injured paw",[7],−55%
same,"% variation vs vehicle treated group, injured paw",[7],−8%
same,"paw withdrawal threshold, control paw, Mean",[7],368 g
same,"% activity on mechanical hyperalgesia, injured paw",[8],59%
same,"% variation vs control paw, injured paw",[8],−33%
same,"% variation vs pre-drug threshold, injured paw",[8],71%
same,"% variation vs vehicle treated group, injured paw",[8],69%
same,"paw withdrawal threshold, control paw, individual rats",[9],600 g and 320 g and 440 g (4×) and 400 g and 280 g and 480 g and 360 g
same,"paw withdrawal threshold, injured paw, individual rats",[9],440 g and 320 g (2×) and 260 g and 220 g and 240 g (4×) and 280 g
same,"paw withdrawal threshold, control paw, Mean","CCI rats, MIN-117 10 mg/kg IP, 120 min after treatment",420 g
same,"Nociceptive threshold, control paw (mean ± s.e.m.)","CCI, 1 mg/kg IP",366 ± 16.1 g
same,"% variation vs control paw, injured paw",[10],−54%
same,"% variation vs vehicle-treated group, injured paw",[10],−6%
same,"Nociceptive threshold, injured paw (mean ± s.e.m.)",[10],168 ± 8.0 g
same,"% variation vs control paw, injured paw","CCI, 1 mg/kg IP, T0 + 120 min",−47%
same,"% variation vs pre-drug threshold, injured paw","CCI, 1 mg/kg IP, T0 + 120 min",10%
same,"% variation vs vehicle-treated group, injured paw","CCI, 1 mg/kg IP, T0 + 120 min",11%
same,"Nociceptive threshold, injured paw (mean ± s.e.m.)","CCI, 1 mg/kg IP, T0 + 120 min",184 ± 6.5 g
same,Effect on nociceptive threshold vs vehicle-treated group (in words),"CCI, 1 mg/kg i.p., 120 min. after treatment",did not induce any significant increase
same,"Nociceptive threshold, control paw (mean ± s.e.m.)","CCI, 3 mg/kg IP",364 ± 9.8 g
same,"% variation vs control paw, injured paw",[11],−55%
same,"% variation vs vehicle-treated group, injured paw",[11],−8%
same,"Nociceptive threshold, injured paw (mean ± s.e.m.)",[11],164 ± 5.8 g
same,"% variation vs control paw, injured paw","CCI, 3 mg/kg IP, T0 + 120 min",−40%
same,"% variation vs pre-drug threshold, injured paw","CCI, 3 mg/kg IP, T0 + 120 min",35%
same,"% variation vs vehicle-treated group, injured paw","CCI, 3 mg/kg IP, T0 + 120 min",34%
same,"Nociceptive threshold, injured paw (mean ± s.e.m.)","CCI, 3 mg/kg IP, T0 + 120 min, hydrochloride, 3 mg/kg",222 ± 9.2 g
same,Effect on nociceptive threshold vs vehicle-treated group (in words),"CCI, 3 mg/kg i.p., after 120 min.",significant increase
same,"Nociceptive threshold, control paw (mean ± s.e.m.)","CCI, 10 mg/kg IP",368 ± 16.9 g
same,"% variation vs control paw, injured paw",[12],−55%
same,"% variation vs vehicle-treated group, injured paw",[12],−8%
same,"Nociceptive threshold, injured paw (mean ± s.e.m.)",[12],164 ± 7.2 g
same,"% variation vs control paw, injured paw","CCI, 10 mg/kg IP, T0 + 120 min",−33%
same,"% variation vs pre-drug threshold, injured paw","CCI, 10 mg/kg IP, T0 + 120 min",71%
same,"% variation vs vehicle-treated group, injured paw","CCI, 10 mg/kg IP, T0 + 120 min",69%
same,"Nociceptive threshold, injured paw (mean ± s.e.m.)","CCI, 10 mg/kg IP, T0 + 120 min, hydrochloride, 10 mg/kg",280 ± 20.9 g
same,Effect on nociceptive threshold vs vehicle-treated group (in words),"CCI, 10 mg/kg i.p., after 120 min.",significant increase
"CN1CC[C@]23c4c5ccc(O)c4O[C@H]2[C@@H](O)C=C[C@H]3[C@H]1C5 [Morphine, reference compound]","% activity on mechanical hyperalgesia, injured paw",[13],165%
same,"% variation vs control paw, injured paw",[13],−23%
same,"% variation vs pre-drug threshold, injured paw",[13],159%
same,"paw withdrawal threshold, control paw, individual rats",[14],680 g (2×) and 640 g (3×) and 600 g (3×) and 560 g and 660 g
same,"paw withdrawal threshold, injured paw, individual rats",[14],680 g and 600 g (2×) and 480 g (2×) and 560 g and 320 g and 500 g and 240 g and 400 g
same,"paw withdrawal threshold, control paw, Mean",[14],630 g
same,"% variation vs control paw, injured paw",[15],−49%
same,"% variation vs vehicle treated group, injured paw",[15],6%
same,"paw withdrawal threshold, control paw, Mean",[15],372 g
same,"Nociceptive threshold, control paw (mean ± s.e.m.)","CCI, 3 mg/kg SC",372 ± 20.7 g
same,"% variation vs control paw, injured paw",[16],−49%
same,"% variation vs vehicle-treated group, injured paw",[16],6%
same,"Nociceptive threshold, injured paw (mean ± s.e.m.)","CCI, 3 mg/kg SC, T0 (before dosing), 3 mg/kg",188 ± 10.4 g
same,"% variation vs control paw, injured paw","CCI, 3 mg/kg SC, T0 + 30 min",−23%
same,"% variation vs pre-drug threshold, injured paw","CCI, 3 mg/kg SC, T0 + 30 min",159%
same,"Nociceptive threshold, injured paw (mean ± s.e.m.)","CCI, 3 mg/kg SC, T0 + 30 min, 3 mg/kg",486 ± 42.8 g
same,Effect on nociceptive threshold vs baseline pre-treatment (in words),"CCI, 3 mg/kg s.c., 30 min. after the administration",pronounced and significant increase
